Structures can show the parent of a compound that is named as a salt.
Tests used:
[1] = system: oedema of the leg induced by Zymosan; test: Oedema of the leg induced by Zymosan in mice; assay type: in vivo; conditions: oral route, 30 mg/kg, one hour before zymosan, sacrificed after 4 hours
Method: a) Oedema of the leg induced by Zymosan in mice Zymosan is a polysaccharide of the yeast cell membrane. Injected into the leg of animals, it causes a local inflammatory reaction in the form of an oedema. One hour after administration of the inhibitor tested by the oral route to mice, at the dose of 30 mg/kg, 25 μl of zymosan (0.05% in 0.15 M NaCl) are injected into the left hind leg and 25 μl of physiological saline into the right leg as control. The animal is sacrificed after 4 hours, the legs cut at the ankle and weighed in order to evaluate the oedema developed.

[2] = system: biosynthesis of LTB4 in the air pouch; test: Inflammation induced by carrageenan in the air pouch model in mice (LTB4 in exudate); assay type: in vivo
Method: b) Inflammation induced by carrageenan in the air pouch model in mice
The air pouches are formed in mice according to Dawson et al. (Int. J. Tiss. React., 1991, XIII: 171). On day D, 5 ml of air are injected by the subcutaneous route into the back of the mice. On D+3, the pouch is maintained by reinjecting 3 ml of air. On D+6, either a cyclooxygenase inhibitor (indomethacin 5 mg/kg), or an LTA4 hydrolase inhibitor according to the invention (25 mg/kg), or the two in combination are administered by the oral route. After 1 h, 1 ml of 1% carrageenan is injected into the air pouch. The animals are sacrificed 4 h after the injection of carrageenan. The air pouche is washed with 1 ml of 50 mM potassium phosphate buffer containing 0.15 M NaCl, pH 7.4. The exudate is recovered and centrifuged at 10,000 g for 5 minutes. LTB4 is assayed in the supernatant by enzyme-linked immunoassay.

[3] = target: T1, human recombinant LTA4 hydrolase (Homo sapiens, UniProt P09960); test: Inhibition of the aminopeptidase activity of recombinant LTA4 hydrolase (fluorimetric, Ala-AMC); assay type: biochemical; conditions: human recombinant enzyme, Ala-AMC 25 μM, DTT 10^−5 M, pH 7.4, 37° C.
T1 construct: made in house; host or cells: E. coli JM109
T1 sequence (P09960 1-611): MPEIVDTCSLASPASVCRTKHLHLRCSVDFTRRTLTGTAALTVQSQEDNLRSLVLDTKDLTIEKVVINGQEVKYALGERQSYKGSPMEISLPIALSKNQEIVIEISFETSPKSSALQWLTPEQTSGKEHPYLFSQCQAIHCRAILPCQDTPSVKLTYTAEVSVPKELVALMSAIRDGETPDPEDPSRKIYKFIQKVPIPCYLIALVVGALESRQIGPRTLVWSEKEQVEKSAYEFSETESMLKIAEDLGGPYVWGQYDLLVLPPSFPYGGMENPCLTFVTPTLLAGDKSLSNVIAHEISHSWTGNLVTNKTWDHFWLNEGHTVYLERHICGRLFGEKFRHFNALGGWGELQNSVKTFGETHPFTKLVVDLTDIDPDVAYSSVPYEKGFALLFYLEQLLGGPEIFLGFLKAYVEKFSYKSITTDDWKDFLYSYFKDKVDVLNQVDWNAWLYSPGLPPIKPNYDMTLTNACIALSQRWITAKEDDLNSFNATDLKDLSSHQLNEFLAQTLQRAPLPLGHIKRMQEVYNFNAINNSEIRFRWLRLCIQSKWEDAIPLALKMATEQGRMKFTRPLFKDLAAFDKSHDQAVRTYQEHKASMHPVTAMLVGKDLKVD
Method: 1) Inhibition of the aminopeptidase activity of recombinant LTA4 hydrolase
The compounds were tested using human recombinant LTA4 hydrolase (Minami et al., FEBS Letters, 1988, 229: 279). The LTA4 hydrolase expressed by E. coli JM109 is purified mainly according to Minami et al., (J. Biol. Chem., 1987, 262: 13873).
(§1) The inhibition of the aminopeptidase activity of the enzyme is measured by means of a fluorimetric method in 96-well microplates. The recombinant enzyme (0.5 μg in 50 μl of 50 mM Tris-HCl pH 7.4) is preincubated for 10 minutes at 37° C. in the presence of inhibitor and of dithiothreitol (DTT, 10^−5 M). The substrate alanyl-amido-methylcoumarin (Ala-AMC, 25 μM−Tris HCl 50 mM, pH 7.4) is added and the incubation is continued for 15 minutes at 37° C. The release of AMC is measured by fluorimetry.

[4] = target: T2, LTA4 hydrolase activity in human whole blood (Homo sapiens, UniProt P09960); test: Inhibition of the biosynthesis of LTB4 in vitro in human whole blood; assay type: cell-based; conditions: LTA4 substrate, LTB4 by enzyme-linked immunoassay
T2 construct: from tissue; host or cells: human whole blood collected over sodium heparinate
T2 sequence (P09960 1-611): T1 sequence (P09960 1-611)
Method: 2) Inhibition of the biosynthesis of LTB4 in vitro
The biosynthesis of LTB4 is measured in human whole blood in the presence of inhibitors of LTA4 hydrolase according to the invention. A 50 μl blood sample collected over sodium heparinate is preincubated for 10 minutes at 37° C. in the presence of inhibitor (50 mM Tris-HCl, 0.15 M NaCl, 10^−5 M DTT, pH 7.4).
The LTA4 substrate was freshly prepared by alkaline hydrolysis of LTA4 methyl ester (Cayman Chemical Co., USA). After incubating for 10 minutes in the presence of LTA4 (1 μm in 50 mM Tris-HCl, 0.15 M NaCl, 0.5% BSA, pH 7.4), the reaction is stopped by diluting 1/20 in 0.1 M potassium phosphate buffer containing 1.5 mM […], 0.4 M NaCl, 1 mM EDTA, 0.1% BSA, pH 7.4−4° C.
The LTB4 is assayed by enzyme-linked immunoassay (Cayman Chemical Co, USA).

[5] = target: T3, aminopeptidase M (EC 3.4.11.2) (Sus scrofa, UniProt P15145); test: Inhibition of membrane aminopeptidase M (same fluorimetric test); assay type: biochemical; conditions: 0.1 μg aminopeptidase M (Pierce)
T3 construct: purchased Pierce, USA
T3 sequence (P15145 1-963): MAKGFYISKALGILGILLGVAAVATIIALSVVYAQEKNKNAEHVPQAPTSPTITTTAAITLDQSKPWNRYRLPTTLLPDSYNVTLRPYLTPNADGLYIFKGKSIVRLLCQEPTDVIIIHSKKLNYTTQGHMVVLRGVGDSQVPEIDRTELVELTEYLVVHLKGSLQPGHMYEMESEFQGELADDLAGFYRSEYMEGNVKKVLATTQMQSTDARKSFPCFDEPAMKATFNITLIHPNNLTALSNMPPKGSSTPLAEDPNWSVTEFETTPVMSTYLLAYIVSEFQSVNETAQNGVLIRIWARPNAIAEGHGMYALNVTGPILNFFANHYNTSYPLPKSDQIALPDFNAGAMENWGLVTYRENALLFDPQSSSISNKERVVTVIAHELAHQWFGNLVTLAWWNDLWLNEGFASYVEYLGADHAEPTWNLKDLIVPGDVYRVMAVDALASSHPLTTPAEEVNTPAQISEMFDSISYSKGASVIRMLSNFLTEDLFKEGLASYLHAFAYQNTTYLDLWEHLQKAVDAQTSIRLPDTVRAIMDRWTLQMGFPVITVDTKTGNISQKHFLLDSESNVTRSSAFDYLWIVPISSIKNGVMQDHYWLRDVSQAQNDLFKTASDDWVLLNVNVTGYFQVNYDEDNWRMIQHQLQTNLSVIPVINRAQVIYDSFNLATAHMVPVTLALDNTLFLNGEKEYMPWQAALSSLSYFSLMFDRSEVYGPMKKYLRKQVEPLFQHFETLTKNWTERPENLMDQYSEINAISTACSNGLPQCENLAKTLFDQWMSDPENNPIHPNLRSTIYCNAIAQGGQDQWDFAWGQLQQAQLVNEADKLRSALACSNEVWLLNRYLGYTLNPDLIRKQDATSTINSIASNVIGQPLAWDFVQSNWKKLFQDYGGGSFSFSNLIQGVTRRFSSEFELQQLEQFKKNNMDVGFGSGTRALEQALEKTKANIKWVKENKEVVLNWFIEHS
Method: as §1
To evaluate the specificity of the compounds according to the invention, some of them were also tested for their capacity to inhibit the activity of membrane aminopeptidase M (EC 3.4.11.2). The same test is carried out with 0.1 μg of aminopeptidase M (Pierce, USA).

[6] = system: biosynthesis of LTB4; test: Inhibition of the biosynthesis of LTB4 ex vivo (mouse blood after oral dosing); assay type: in vivo; conditions: mice, blood collected thirty minutes later
Method: 3) Inhibition of the biosynthesis of LTB4 ex vivo
The compounds inhibiting LTA4 hydrolase according to the invention are suspended in 1.25% methyl cellulose and administered to mice by the oral route at the dose of 10 mg/kg. Thirty minutes later, the mice are sacrificed and the blood collected over lithium heparinate. The blood is then, as above, incubated for 10 minutes at 37° C. in the presence of LTA4 and then the LTB4 formed is assayed by enzyme-linked immunoassay.

[7] = system: collagen-induced arthritis; test: Collagen-induced arthritis in the rat (arthritis score); assay type: in vivo, rat "Dark Aganti"; conditions: score at 23rd day
Method: c) Antiarthritic effect Collagen-induced arthritis was induced in the rat “Dark […]” according to the protocol by Kamada et al. (Jpn J. Pharmacol., 1997, 74: 313). The LTA4 hydrolase inhibitors are administered either “preventively” (starting from one day after the collagen), or curatively (during the first pathological manifestations, that is starting from 15 days after the collagen). […] The effect is-compared with that of indomethacin (1.5 mg/kg, p.o.).

For `Cl.N[C@@H](CS)CCCCOc1ccccc1` (racemic) [Example 156, (R,S) -2-amino-6-phenoxy-1-hexanethiol hydrochloride], the “Inhibition (%) of oedema of the leg induced by Zymosan” value [1] was 35%, the “% LTB4 relative to the noninflamed control” value ([2]; carrageenan + LTA4 hydrolase inhibitor 25 mg/kg oral, 4 h after carrageenan) was −24% and the “% LTB4 relative to the noninflamed control” value ([2]; carrageenan + indomethacin 5 mg/kg + inhibitor 25 mg/kg in combination, oral) was −28%.
`NC(CS)CCOc1ccccc1` (racemic) [Example 172, (R,S)-2-amino-4-phenoxy-1-butanethiol hydrochloride] gave a Ki [3] of 15 nM and a Ki [4] of 190 nM.
`NC(CS)CCCCc1ccccc1` (racemic) [Example 173, (R,S)-2-amino-6-phenyl-1-hexanethiol hydrochloride] was tested, and the Ki [3] was 33 nM, the Ki [5] was 200 nM and the Ki [4] was 200 nM.
`Cl.N[C@@H](CS)CCCOc1ccccc1` (racemic) [Example 177, (R,S)-2-amino-5-phenoxy-1-pentanethiol hydrochloride] was tested, and the “Inhibition (%) of the biosynthesis of LTB4 ex vivo” value ([6]; 10 mg/kg) was 68%.
`N[C@@H](CS)CSCc1ccccc1` [Example 23, (S)-2-amino-3-benzylthio-1-propanethiol hydrochloride] was tested, and the Ki [3] was 62 nM.
`N[C@H](CS)COCc1ccccc1` [Example 24, (S)-2-amino-3-benzyloxy-1-propanethiol hydrochloride] gave an inhibition at 10 mg/kg ([6]; Mus musculus) of 28%.
For `Cl.Cl.NC(CCCCOc1ccccc1)CSSCC(N)CCCCOc1ccccc1` [Example 229, 1,1-dithiobis(2-(R,S)-amino-6-phenoxyhexane) dihydrochloride], the Arthritis score ([7]; curative (starting 15 days after collagen), 10 mg/kg i.p. twice/day) was 0.38 ± 0.19 and the Arthritis score ([7]; preventive (starting one day after collagen), 10 mg/kg i.p. twice/day) was 0.
`COc1ccc2c(c1)c(CC(=O)O)c(C)n2C(=O)c1ccc(Cl)cc1` [indomethacin, reference compound] was tested, and the “% LTB4 relative to the noninflamed control” value ([2]; carrageenan + indomethacin 5 mg/kg oral, 4 h after carrageenan) was “+516%” and the Arthritis score ([7]; curative, 1.5 mg/kg p.o.) was 1.35 ± 0.61.

Source: patent US6436973B1, “LTA4 hydrolase inhibitors” (Bioprojet, priority 1998, dated 2002)
